{"source": "the supplement of paper PMC11208160", "test": "recombinant barcode read abundance after kanamycin selection (control-corrected) (log10(CPM+1)); higher = more efficient recombination; sequences stand for … in AGTGCAGAGAAAATCGGCCAGTTTTCTCTGCCTGCAGTCCGCATGCCGT…ATTTATGCAGCGGACTGCCTTTCTCCCAAAGTGATAAACCGGACAGTATCATGGACCGGTTTTCCCGGTAATCCGTATTTGCAAGGTTGGTTTCACT; site = the 11-nt target", "procedure": "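Same pooled E. coli target screen (IS621 bridge recombinase, kanamycin selection, control-corrected CPM, mean of 2 biological replicates). Here the two core-binding nucleotides of the LTG and RTG of the bridge RNA target-binding loop are mutated. Target and donor CT cores are held constant, and the other 9 guide positions match the target. The target is read from the library oligo sequence. Molecule = full bridge RNA written as DNA: nt 1-80 from the library oligo, rest WT scaffold.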"}
{"sequence": "AGGCGGTCCTGGGTTCTAACCTGTTGCTTAG [AGGCGGTCTAA_LTGcore_CC_RTGcore_CT] (site AGGCGGTCTAA) (LTG core: CC, RTG core: CT)", "values": [{"measurement": "recombinant barcode read abundance (log10)", "value": 0.341}]}
{"sequence": "AGGCGGTCCTGGGTTCTAACCTGTTGCTTGG [AGGCGGTCTAA_LTGcore_CC_RTGcore_CC] (site AGGCGGTCTAA) (LTG core: CC, RTG core: CC)", "values": [{"measurement": "recombinant barcode read abundance (log10)", "value": 0.334}]}
{"sequence": "AGGCGGTCGTGGGTTCTAACCTGTTGCTTAG [AGGCGGTCTAA_LTGcore_CG_RTGcore_CT] (site AGGCGGTCTAA) (LTG core: CG, RTG core: CT)", "values": [{"measurement": "recombinant barcode read abundance (log10)", "value": 0.398}]}
{"sequence": "AGGCGGTCTTGGGTTCTAACCTGTTGCTTCA [AGGCGGTCTAA_LTGcore_CT_RTGcore_TG] (site AGGCGGTCTAA) (LTG core: CT, RTG core: TG)", "values": [{"measurement": "recombinant barcode read abundance (log10)", "value": 0.171}]}
{"sequence": "AGGCGGTCTTGGGTTCTAACCTGTTGCTTCG [AGGCGGTCTAA_LTGcore_CT_RTGcore_CG] (site AGGCGGTCTAA) (LTG core: CT, RTG core: CG)", "values": [{"measurement": "recombinant barcode read abundance (log10)", "value": 0.117}]}
{"sequence": "AGGCGGTCTTGGGTTCTAACCTGTTGCTTTA [AGGCGGTCTAA_LTGcore_CT_RTGcore_TA] (site AGGCGGTCTAA) (LTG core: CT, RTG core: TA)", "values": [{"measurement": "recombinant barcode read abundance (log10)", "value": 0.353}]}
{"sequence": "AGGCGGTGTTGGGTTCTAACCTGTTGCTTAC [AGGCGGTCTAA_LTGcore_GT_RTGcore_GT] (site AGGCGGTCTAA) (LTG core: GT, RTG core: GT)", "values": [{"measurement": "recombinant barcode read abundance (log10)", "value": 0.278}]}
{"sequence": "AGGCGGTTATGGGTTCTAACCTGTTGCTTAG [AGGCGGTCTAA_LTGcore_TA_RTGcore_CT] (site AGGCGGTCTAA) (LTG core: TA, RTG core: CT)", "values": [{"measurement": "recombinant barcode read abundance (log10)", "value": 0.168}]}
{"sequence": "AGGCGGTTATGGGTTCTAACCTGTTGCTTTA [AGGCGGTCTAA_LTGcore_TA_RTGcore_TA] (site AGGCGGTCTAA) (LTG core: TA, RTG core: TA)", "values": [{"measurement": "recombinant barcode read abundance (log10)", "value": 0.025}]}
{"sequence": "AGGCGGTTCTGGGTTCTAACCTGTTGCTTAG [AGGCGGTCTAA_LTGcore_TC_RTGcore_CT] (site AGGCGGTCTAA) (LTG core: TC, RTG core: CT)", "values": [{"measurement": "recombinant barcode read abundance (log10)", "value": 0}]}
{"sequence": "AGGCGGTTCTGGGTTCTAACCTGTTGCTTGA [AGGCGGTCTAA_LTGcore_TC_RTGcore_TC] (site AGGCGGTCTAA) (LTG core: TC, RTG core: TC)", "values": [{"measurement": "recombinant barcode read abundance (log10)", "value": 0.191}]}
{"sequence": "AGGCGGTTTTGGGTTCTAACCTGTTGCTTAG [AGGCGGTCTAA_LTGcore_TT_RTGcore_CT] (site AGGCGGTCTAA) (LTG core: TT, RTG core: CT)", "values": [{"measurement": "recombinant barcode read abundance (log10)", "value": 0.104}]}
{"sequence": "AGTCTTAACTGGGTTCTAACCTGTTGCCAAG [AGTCTTACTTG_LTGcore_AC_RTGcore_CT] (site AGTCTTACTTG) (LTG core: AC, RTG core: CT)", "values": [{"measurement": "recombinant barcode read abundance (log10)", "value": 0.111}]}
{"sequence": "AGTCTTAACTGGGTTCTAACCTGTTGCCAGT [AGTCTTACTTG_LTGcore_AC_RTGcore_AC] (site AGTCTTACTTG) (LTG core: AC, RTG core: AC)", "values": [{"measurement": "recombinant barcode read abundance (log10)", "value": 0.129}]}
{"sequence": "AGTCTTAAGTGGGTTCTAACCTGTTGCCACT [AGTCTTACTTG_LTGcore_AG_RTGcore_AG] (site AGTCTTACTTG) (LTG core: AG, RTG core: AG)", "values": [{"measurement": "recombinant barcode read abundance (log10)", "value": 0.0305}]}
{"sequence": "AGTCTTACCTGGGTTCTAACCTGTTGCCAAG [AGTCTTACTTG_LTGcore_CC_RTGcore_CT] (site AGTCTTACTTG) (LTG core: CC, RTG core: CT)", "values": [{"measurement": "recombinant barcode read abundance (log10)", "value": 0.0498}]}
{"sequence": "AGTCTTACTTGGGTTCTAACCTGTTGCCATG [AGTCTTACTTG_LTGcore_CT_RTGcore_CA] (site AGTCTTACTTG) (LTG core: CT, RTG core: CA)", "values": [{"measurement": "recombinant barcode read abundance (log10)", "value": 0.0163}]}
{"sequence": "AGTCTTAGATGGGTTCTAACCTGTTGCCAAG [AGTCTTACTTG_LTGcore_GA_RTGcore_CT] (site AGTCTTACTTG) (LTG core: GA, RTG core: CT)", "values": [{"measurement": "recombinant barcode read abundance (log10)", "value": 0.23}]}
{"sequence": "AGTCTTAGATGGGTTCTAACCTGTTGCCATC [AGTCTTACTTG_LTGcore_GA_RTGcore_GA] (site AGTCTTACTTG) (LTG core: GA, RTG core: GA)", "values": [{"measurement": "recombinant barcode read abundance (log10)", "value": 0.0257}]}
{"sequence": "AGTCTTAGCTGGGTTCTAACCTGTTGCCAAG [AGTCTTACTTG_LTGcore_GC_RTGcore_CT] (site AGTCTTACTTG) (LTG core: GC, RTG core: CT)", "values": [{"measurement": "recombinant barcode read abundance (log10)", "value": 0.0805}]}
{"sequence": "AGTCTTAGGTGGGTTCTAACCTGTTGCCAAG [AGTCTTACTTG_LTGcore_GG_RTGcore_CT] (site AGTCTTACTTG) (LTG core: GG, RTG core: CT)", "values": [{"measurement": "recombinant barcode read abundance (log10)", "value": 0}]}
{"sequence": "AGTCTTAGTTGGGTTCTAACCTGTTGCCAAG [AGTCTTACTTG_LTGcore_GT_RTGcore_CT] (site AGTCTTACTTG) (LTG core: GT, RTG core: CT)", "values": [{"measurement": "recombinant barcode read abundance (log10)", "value": 0.0538}]}
{"sequence": "AGTCTTATCTGGGTTCTAACCTGTTGCCAAG [AGTCTTACTTG_LTGcore_TC_RTGcore_CT] (site AGTCTTACTTG) (LTG core: TC, RTG core: CT)", "values": [{"measurement": "recombinant barcode read abundance (log10)", "value": 0.0237}]}
{"sequence": "ATGCTTTAATGGGTTCTAACCTGTTGCCTTT [ATGCTTTCTAG_LTGcore_AA_RTGcore_AA] (site ATGCTTTCTAG) (LTG core: AA, RTG core: AA)", "values": [{"measurement": "recombinant barcode read abundance (log10)", "value": 0.125}]}
{"sequence": "ATGCTTTACTGGGTTCTAACCTGTTGCCTGT [ATGCTTTCTAG_LTGcore_AC_RTGcore_AC] (site ATGCTTTCTAG) (LTG core: AC, RTG core: AC)", "values": [{"measurement": "recombinant barcode read abundance (log10)", "value": 0.0458}]}
{"sequence": "ATGCTTTCTTGGGTTCTAACCTGTTGCCTAA [ATGCTTTCTAG_LTGcore_CT_RTGcore_TT] (site ATGCTTTCTAG) (LTG core: CT, RTG core: TT)", "values": [{"measurement": "recombinant barcode read abundance (log10)", "value": 0.322}]}
{"sequence": "ATGCTTTCTTGGGTTCTAACCTGTTGCCTCA [ATGCTTTCTAG_LTGcore_CT_RTGcore_TG] (site ATGCTTTCTAG) (LTG core: CT, RTG core: TG)", "values": [{"measurement": "recombinant barcode read abundance (log10)", "value": 0.153}]}
{"sequence": "ATGCTTTCTTGGGTTCTAACCTGTTGCCTCC [ATGCTTTCTAG_LTGcore_CT_RTGcore_GG] (site ATGCTTTCTAG) (LTG core: CT, RTG core: GG)", "values": [{"measurement": "recombinant barcode read abundance (log10)", "value": 0.127}]}
{"sequence": "ATGCTTTCTTGGGTTCTAACCTGTTGCCTGG [ATGCTTTCTAG_LTGcore_CT_RTGcore_CC] (site ATGCTTTCTAG) (LTG core: CT, RTG core: CC)", "values": [{"measurement": "recombinant barcode read abundance (log10)", "value": 0.57}]}
{"sequence": "ATGCTTTTGTGGGTTCTAACCTGTTGCCTCA [ATGCTTTCTAG_LTGcore_TG_RTGcore_TG] (site ATGCTTTCTAG) (LTG core: TG, RTG core: TG)", "values": [{"measurement": "recombinant barcode read abundance (log10)", "value": 0.313}]}
{"sequence": "ATGTCCCAATGGGTTCTAACCTGTTGCTCTT [ATGTCCCCTGA_LTGcore_AA_RTGcore_AA] (site ATGTCCCCTGA) (LTG core: AA, RTG core: AA)", "values": [{"measurement": "recombinant barcode read abundance (log10)", "value": 0.133}]}
{"sequence": "ATGTCCCATTGGGTTCTAACCTGTTGCTCAT [ATGTCCCCTGA_LTGcore_AT_RTGcore_AT] (site ATGTCCCCTGA) (LTG core: AT, RTG core: AT)", "values": [{"measurement": "recombinant barcode read abundance (log10)", "value": 0.0551}]}
{"sequence": "ATGTCCCCATGGGTTCTAACCTGTTGCTCTG [ATGTCCCCTGA_LTGcore_CA_RTGcore_CA] (site ATGTCCCCTGA) (LTG core: CA, RTG core: CA)", "values": [{"measurement": "recombinant barcode read abundance (log10)", "value": 0.0134}]}
{"sequence": "ATGTCCCCCTGGGTTCTAACCTGTTGCTCAG [ATGTCCCCTGA_LTGcore_CC_RTGcore_CT] (site ATGTCCCCTGA) (LTG core: CC, RTG core: CT)", "values": [{"measurement": "recombinant barcode read abundance (log10)", "value": 0.137}]}
{"sequence": "ATGTCCCCCTGGGTTCTAACCTGTTGCTCGG [ATGTCCCCTGA_LTGcore_CC_RTGcore_CC] (site ATGTCCCCTGA) (LTG core: CC, RTG core: CC)", "values": [{"measurement": "recombinant barcode read abundance (log10)", "value": 0.0529}]}
{"sequence": "ATGTCCCCGTGGGTTCTAACCTGTTGCTCAG [ATGTCCCCTGA_LTGcore_CG_RTGcore_CT] (site ATGTCCCCTGA) (LTG core: CG, RTG core: CT)", "values": [{"measurement": "recombinant barcode read abundance (log10)", "value": 0.0411}]}
{"sequence": "ATGTCCCCTTGGGTTCTAACCTGTTGCTCAT [ATGTCCCCTGA_LTGcore_CT_RTGcore_AT] (site ATGTCCCCTGA) (LTG core: CT, RTG core: AT)", "values": [{"measurement": "recombinant barcode read abundance (log10)", "value": 0.0302}]}
{"sequence": "ATGTCCCCTTGGGTTCTAACCTGTTGCTCGT [ATGTCCCCTGA_LTGcore_CT_RTGcore_AC] (site ATGTCCCCTGA) (LTG core: CT, RTG core: AC)", "values": [{"measurement": "recombinant barcode read abundance (log10)", "value": 0.161}]}
{"sequence": "ATGTCCCGTTGGGTTCTAACCTGTTGCTCAG [ATGTCCCCTGA_LTGcore_GT_RTGcore_CT] (site ATGTCCCCTGA) (LTG core: GT, RTG core: CT)", "values": [{"measurement": "recombinant barcode read abundance (log10)", "value": 0.0848}]}
{"sequence": "ATGTCCCTCTGGGTTCTAACCTGTTGCTCGA [ATGTCCCCTGA_LTGcore_TC_RTGcore_TC] (site ATGTCCCCTGA) (LTG core: TC, RTG core: TC)", "values": [{"measurement": "recombinant barcode read abundance (log10)", "value": 0.122}]}
{"sequence": "ATGTCCCTTTGGGTTCTAACCTGTTGCTCAG [ATGTCCCCTGA_LTGcore_TT_RTGcore_CT] (site ATGTCCCCTGA) (LTG core: TT, RTG core: CT)", "values": [{"measurement": "recombinant barcode read abundance (log10)", "value": 0.0884}]}
{"sequence": "CATATTAAATGGGTTCTAACCTGTTGCCTAG [CATATTACTAG_LTGcore_AA_RTGcore_CT] (site CATATTACTAG) (LTG core: AA, RTG core: CT)", "values": [{"measurement": "recombinant barcode read abundance (log10)", "value": 0.0356}]}
{"sequence": "CATATTACATGGGTTCTAACCTGTTGCCTTG [CATATTACTAG_LTGcore_CA_RTGcore_CA] (site CATATTACTAG) (LTG core: CA, RTG core: CA)", "values": [{"measurement": "recombinant barcode read abundance (log10)", "value": 0.00594}]}
{"sequence": "CATATTACTTGGGTTCTAACCTGTTGCCTAG [CATATTACTAG_LTGcore_CT_RTGcore_CT] (site CATATTACTAG) (LTG core: CT, RTG core: CT)", "values": [{"measurement": "recombinant barcode read abundance (log10)", "value": 0.22}]}
